Results as given in ChEMBL document CHEMBL1126375, “Synthesis of chiral phosphorus mustards derived from serine” (Bioorg Med Chem Lett, 1992).
The source made the active and inactive calls. The calls are words filed in the database; no cut-off is given here.

What was measured:
[1] = test system: Human immunodeficiency virus 1; test: Compound was tested for in vitro anti-human immunodeficiency virus activity; NA=No activity; assay type: functional, organism-based
Tumor cell line = test: Compound was tested for in vitro activity against tumor cell lines; NA=No activity; assay type: functional, cell-based

| SMILES | Activity [1] | Activity (Tumor cell line) |
| --- | --- | --- |
| COC(=O)[C@@H]1CO[P@@](=O)(N(CCCl)CCCl)N1Cc1ccccc1 (stereo in doubt; 5b) | inactive | inactive |
| COC(=O)[C@H]1CO[P@](=O)(N(CCCl)CCCl)N1Cc1ccccc1 | inactive | inactive |
| COC(=O)[C@@H]1CO[P@@](=O)(N(CCCl)CCCl)N1Cc1ccccc1 (stereo in doubt; 7a) | inactive | inactive |
| COC(=O)[C@@H]1CO[P@@](=O)(N(CCCl)CCCl)N1Cc1ccccc1 (stereo in doubt; 5a) | inactive | inactive |
